Source: the NIST ThermoML archive (doi:10.1021/je800999s)

Test: molar heat capacity at constant pressure; xn = mol fraction of the nth substance listed
Settings: 101 kPa, Liquid, Large sample (1 g) DSC

O=CN1CCOCC1 [N-formylmorpholine] + O
molar heat capacity at constant pressure [J/K/mol]
Settings | x1 = 0.0997 | x1 = 0.1998 | x1 = 0.2992 | x1 = 0.3993 | x1 = 0.4975 | x1 = 0.5978 | x1 = 0.6954 | x1 = 0.7988 | x1 = 0.8946 | x1 = 1
303.15 K | 86 | 98 | 111 | 123 | 134 | 145 | 154 | 164 | 174 | 185
308.15 K | 86 | 99 | 111 | 124 | 135 | 146 | 156 | 166 | 176 | 186
313.15 K | 87 | 100 | 113 | 125 | 137 | 148 | 158 | 168 | 178 | 188
318.15 K | 87 | 100 | 114 | 126 | 138 | 149 | 159 | 169 | 179 | 189
323.15 K | 88 | 101 | 115 | 127 | 140 | 150 | 161 | 171 | 181 | 191
328.15 K | 88 | 102 | 116 | 129 | 141 | 152 | 162 | 173 | 183 | 193
333.15 K | 89 | 103 | 117 | 130 | 142 | 153 | 164 | 174 | 184 | 195
338.15 K | 90 | 104 | 118 | 131 | 144 | 155 | 166 | 176 | 186 | 197
343.15 K | 91 | 106 | 120 | 133 | 146 | 157 | 168 | 178 | 189 | 200
348.15 K | 91 | 107 | 121 | 135 | 147 | 158 | 169 | 180 | 190 | 201
353.15 K | 92 | 107 | 122 | 135 | 148 | 159 | 170 | 181 | 191 | 202

CN1CCCC1=O [N-methylpyrrolidone] + O
molar heat capacity at constant pressure [J/K/mol]
Settings | x1 = 0.0999 | x1 = 0.1998 | x1 = 0.2984 | x1 = 0.3979 | x1 = 0.4961 | x1 = 0.5981 | x1 = 0.6917 | x1 = 0.799 | x1 = 0.8946 | x1 = 1
303.15 K | 90 | 102 | 113 | 122 | 129 | 137 | 144 | 152 | 158 | 166
308.15 K | 90 | 103 | 114 | 123 | 131 | 138 | 146 | 153 | 160 | 167
313.15 K | 91 | 104 | 115 | 124 | 132 | 140 | 147 | 154 | 161 | 168
318.15 K | 91 | 105 | 116 | 125 | 133 | 141 | 148 | 155 | 162 | 169
323.15 K | 92 | 105 | 118 | 127 | 135 | 142 | 150 | 157 | 164 | 170
328.15 K | 92 | 106 | 119 | 128 | 136 | 144 | 151 | 158 | 165 | 172
333.15 K | 93 | 107 | 120 | 129 | 138 | 145 | 153 | 160 | 166 | 174
338.15 K | 93 | 108 | 121 | 131 | 139 | 147 | 154 | 161 | 168 | 175
343.15 K | 94 | 109 | 122 | 132 | 141 | 149 | 156 | 163 | 169 | 176
348.15 K | 95 | 110 | 123 | 133 | 142 | 150 | 157 | 164 | 170 | 177
353.15 K | 95 | 110 | 124 | 134 | 142 | 151 | 158 | 165 | 170 | 178
